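Briefly, cells in 96-well plates were exposed to five compound concentrations for 48 h, and endpoints were estimated by linear interpolation. GI50 = concentration required for 50% inhibition of growth.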 Active and inactive are the calls of the source. Cut-off read from the data, not from the text of the source: active = GI50 up to about 1.1 µM and inactive = higher.
Columns and labels:
Test in all cases: NCI tumour cell line growth inhibition, 48 h
NCI-H522 = test system: NCI-H522
OVCAR-4 = test system: OVCAR-4
MOLT-4 = test system: MOLT-4
HOP-62 = test system: HOP-62
OVCAR-3 = test system: OVCAR-3
SK-MEL-2 = test system: SK-MEL-2
KM-20L2 = test system: KM-20L2
DMS-114 = test system: DMS-114
OVCAR-5 = test system: OVCAR-5
CAKI-1 = test system: CAKI-1
SF-295 = test system: SF-295
SNB-19 = test system: SNB-19
A549 = test system: A549
NCI-H23 = test system: NCI-H23
COLO 205 = test system: COLO 205
M19-MEL = test system: M19-MEL
SK-MEL-28 = test system: SK-MEL-28
SR = test system: SR
HT-29 = test system: HT-29
U-251 = test system: U-251
DLD-1 = test system: DLD-1
KM12 = test system: KM12
OVCAR-8 = test system: OVCAR-8
Malme-3M = test system: Malme-3M
UACC-62 = test system: UACC-62
LXFL 529 = test system: LXFL 529
DMS-273 = test system: DMS-273
NCI-H460 = test system: NCI-H460
HCT-15 = test system: HCT-15
HOP-18 = test system: HOP-18
SNB-75 = test system: SNB-75
UACC-257 = test system: UACC-257
NCI-H226 = test system: NCI-H226
SNB-78 = test system: SNB-78
LOX IMVI = test system: LOX IMVI
SF-268 = test system: SF-268
ACHN = test system: ACHN
RXF 393 = test system: RXF 393
TK-10 = test system: TK-10
IGROV-1 = test system: IGROV-1
SW-620 = test system: SW-620
HCT-116 = test system: HCT-116
M14 = test system: M14
SK-OV-3 = test system: SK-OV-3
K562 = test system: K562
SN12C = test system: SN12C
EKVX = test system: EKVX
CCRF-CEM = test system: CCRF-CEM
HL-60 = test system: HL-60
UO-31 = test system: UO-31
SK-MEL-5 = test system: SK-MEL-5
786-0 = test system: 786-0
RPMI-8226 = test system: RPMI-8226
HCC 2998 = test system: HCC 2998
RXF 631 = test system: RXF 631
XF498 = test system: XF498
SF-539 = test system: SF-539
HOP-92 = test system: HOP-92
A498 = test system: A498

CC(c1ccc(Br)cc1)C(C(=O)O)C(=O)O (stereo unspecified)
GI50 (NCI-H522): > 100 µM (inactive) | GI50 (OVCAR-4): > 100 µM (inactive) | GI50 (MOLT-4): > 100 µM (inactive) | GI50 (HOP-62): > 100 µM (inactive) | GI50 (OVCAR-3): > 100 µM (inactive) | GI50 (SK-MEL-2): > 100 µM (inactive) | GI50 (KM-20L2): > 100 µM (inactive) | GI50 (DMS-114): > 100 µM (inactive) | GI50 (OVCAR-5): > 100 µM (inactive) | GI50 (CAKI-1): > 100 µM (inactive) | GI50 (SF-295): > 100 µM (inactive) | GI50 (SNB-19): > 100 µM (inactive) | GI50 (A549): > 100 µM (inactive) | GI50 (NCI-H23): > 100 µM (inactive) | GI50 (COLO 205): > 100 µM (inactive) | GI50 (M19-MEL): > 100 µM (inactive) | GI50 (SK-MEL-28): > 100 µM (inactive) | GI50 (SR): > 100 µM (inactive) | GI50 (HT-29): > 100 µM (inactive) | GI50 (U-251): > 100 µM (inactive) | GI50 (DLD-1): > 100 µM (inactive) | GI50 (KM12): > 100 µM (inactive) | GI50 (OVCAR-8): > 100 µM (inactive) | GI50 (Malme-3M): > 100 µM (inactive) | GI50 (UACC-62): > 100 µM (inactive) | GI50 (LXFL 529): > 100 µM (inactive) | GI50 (DMS-273): > 100 µM (inactive) | GI50 (NCI-H460): > 100 µM (inactive) | GI50 (HCT-15): > 100 µM | GI50 (HOP-18): > 100 µM (inactive) | GI50 (SNB-75): > 100 µM (inactive) | GI50 (UACC-257): > 100 µM (inactive) | GI50 (NCI-H226): > 100 µM (inactive) | GI50 (SNB-78): > 100 µM (inactive) | GI50 (LOX IMVI): > 100 µM (inactive) | GI50 (SF-268): > 100 µM (inactive) | GI50 (ACHN): > 100 µM (inactive) | GI50 (RXF 393): > 100 µM (inactive) | GI50 (TK-10): > 100 µM (inactive) | GI50 (IGROV-1): > 100 µM (inactive) | GI50 (SW-620): > 100 µM (inactive) | GI50 (HCT-116): > 100 µM (inactive) | GI50 (M14): > 100 µM (inactive) | GI50 (SK-OV-3): > 100 µM (inactive) | GI50 (K562): > 100 µM (inactive) | GI50 (SN12C): > 100 µM (inactive) | GI50 (EKVX): > 100 µM (inactive) | GI50 (CCRF-CEM): > 100 µM (inactive) | GI50 (HL-60): > 100 µM (inactive) | GI50 (UO-31): > 100 µM (inactive) | GI50 (SK-MEL-5): > 100 µM (inactive) | GI50 (786-0): > 100 µM (inactive) | GI50 (RPMI-8226): > 100 µM (inactive) | GI50 (HCC 2998): > 100 µM (inactive)

CN1/C(=C/C(=O)c2ccc(Cl)cc2)Nc2ccccc21
GI50 (NCI-H522): 19.1 µM (inactive) | GI50 (OVCAR-4): 77.6 µM (inactive) | GI50 (MOLT-4): 22.6 µM (inactive) | GI50 (OVCAR-3): 47.1 µM (inactive) | GI50 (SK-MEL-2): > 100 µM (inactive) | GI50 (KM-20L2): 29.2 µM (inactive) | GI50 (OVCAR-5): 18.9 µM (inactive) | GI50 (CAKI-1): 20 µM (inactive) | GI50 (RXF 631): 43.3 µM (inactive) | GI50 (SF-295): 44.9 µM (inactive) | GI50 (SNB-19): 41.6 µM (inactive) | GI50 (A549): 25.9 µM (inactive) | GI50 (NCI-H23): 43.7 µM (inactive) | GI50 (COLO 205): 38 µM (inactive) | GI50 (M19-MEL): 38.2 µM (inactive) | GI50 (SK-MEL-28): 99.1 µM (inactive) | GI50 (SR): 32.2 µM (inactive) | GI50 (HT-29): 50.7 µM (inactive) | GI50 (U-251): 47.3 µM (inactive) | GI50 (DLD-1): 37.4 µM (inactive) | GI50 (KM12): 42.4 µM (inactive) | GI50 (OVCAR-8): 83.9 µM (inactive) | GI50 (Malme-3M): > 100 µM (inactive) | GI50 (UACC-62): 44.3 µM (inactive) | GI50 (LXFL 529): 33.2 µM (inactive) | GI50 (NCI-H460): 32.5 µM (inactive) | GI50 (HCT-15): 45.9 µM | GI50 (SNB-75): > 100 µM (inactive) | GI50 (UACC-257): 31.9 µM (inactive) | GI50 (NCI-H226): 13.6 µM (inactive) | GI50 (SNB-78): > 100 µM (inactive) | GI50 (LOX IMVI): 39.3 µM (inactive) | GI50 (SF-268): 43.9 µM (inactive) | GI50 (ACHN): 33 µM (inactive) | GI50 (RXF 393): > 100 µM (inactive) | GI50 (IGROV-1): 38.6 µM (inactive) | GI50 (SW-620): 55.5 µM (inactive) | GI50 (HCT-116): 45.7 µM (inactive) | GI50 (M14): 67.3 µM (inactive) | GI50 (K562): 35.9 µM (inactive) | GI50 (SN12C): 60.4 µM (inactive) | GI50 (EKVX): 23.1 µM (inactive) | GI50 (CCRF-CEM): 34.8 µM (inactive) | GI50 (HL-60): 25.1 µM (inactive) | GI50 (XF498): 60.3 µM (inactive) | GI50 (UO-31): 13.2 µM (inactive) | GI50 (SF-539): 58.7 µM (inactive) | GI50 (SK-MEL-5): 25.5 µM (inactive) | GI50 (786-0): 65.6 µM (inactive) | GI50 (RPMI-8226): 31.8 µM (inactive) | GI50 (HCC 2998): 56 µM (inactive)

CCC1=CC2CC(C(=O)OC)C1(N(C)C)C2=O (stereo unspecified)
GI50 (NCI-H522): > 100 µM (inactive) | GI50 (HOP-92): > 100 µM (inactive) | GI50 (MOLT-4): > 100 µM (inactive) | GI50 (HOP-62): > 100 µM (inactive) | GI50 (DMS-114): > 100 µM (inactive) | GI50 (OVCAR-5): > 100 µM (inactive) | GI50 (RXF 631): > 100 µM (inactive) | GI50 (SF-295): > 100 µM (inactive) | GI50 (SNB-19): > 100 µM (inactive) | GI50 (A549): > 100 µM (inactive) | GI50 (NCI-H23): > 100 µM (inactive) | GI50 (M19-MEL): > 100 µM (inactive) | GI50 (SK-MEL-28): > 100 µM (inactive) | GI50 (SR): > 100 µM (inactive) | GI50 (A498): > 100 µM (inactive) | GI50 (HT-29): > 100 µM (inactive) | GI50 (U-251): > 100 µM (inactive) | GI50 (KM12): > 100 µM (inactive) | GI50 (OVCAR-8): > 100 µM (inactive) | GI50 (UACC-62): > 100 µM (inactive) | GI50 (DMS-273): > 100 µM (inactive) | GI50 (NCI-H460): > 100 µM (inactive) | GI50 (UACC-257): > 100 µM (inactive) | GI50 (SNB-78): > 100 µM (inactive) | GI50 (SF-268): > 100 µM (inactive) | GI50 (ACHN): > 100 µM (inactive) | GI50 (RXF 393): > 100 µM (inactive) | GI50 (TK-10): > 100 µM (inactive) | GI50 (IGROV-1): > 100 µM (inactive) | GI50 (HCT-116): > 100 µM (inactive) | GI50 (M14): > 100 µM (inactive) | GI50 (SK-OV-3): > 100 µM (inactive) | GI50 (EKVX): > 100 µM (inactive) | GI50 (CCRF-CEM): > 100 µM (inactive) | GI50 (HL-60): > 100 µM (inactive) | GI50 (UO-31): > 100 µM (inactive)

Reference: ChEMBL document CHEMBL1201862, “PubChem BioAssay data set” (2004)
